Results taken from the RepoRT retention time repository.

Test: RP, Waters ACQUITY UPLC BEH C18, 50 × 2.1 mm, 1.7 µm, 40 °C, 0.6 mL/min, estimated dead time 0.18 min; A: water + 0.1% formic acid, pH 3; B: acetonitrile + 0.1% formic acid, pH 3; gradient (min/%B) 0/5 7/100 8/100
Settings: stereoisomer not certain

LC retention time | SMILES
5.65 min | C=C(C)C1CCC2(C(=O)O)CCC3(C)C(CCC4C5(C)CCC(OC(=O)/C=C/c6ccc(O)c(O)c6)C(C)(C)C5CCC43C)C12 (stereo unspecified)
5.69 min | C=C1CC23CCC4C(C)(C(=O)O)CCCC4(C)C2CCC1C3 (stereo unspecified)
3.51 min | CC1(C(=O)O)CCCC2(C)C3CCC4CC3(C=C4CO)CCC12 (stereo unspecified)
4.2 min | C=C1C(=O)O[C@@H]2C[C@@]3(C)CCCC(=C)[C@@H]3C[C@H]12
3.1 min | COc1ccc(-c2cc(=O)c3c(O)cc(O)cc3o2)cc1-c1c(O)cc(O)c2c(=O)cc(-c3ccc(O)cc3)oc12
6.55 min | CCCC(CC(=O)O)C1=C2OC(=O)C(C(=O)C(C)CC)=C(O)C2(CC=C(C)C)CC(CC=C(C)C)C1(C)C (stereo unspecified)
1.8 min | Cn1c(Cc2ccccc2)nc(=O)c2ccccc21 [2-benzyl-1-methyl-1,4-dihydroquinazolin-4-one]
1.69 min | COc1ccc(C2Oc3c(c(O)cc(O)c3C3C(=O)c4c(O)cc(O)cc4OC3c3ccc(O)cc3)C(=O)C2O)cc1O (stereo unspecified)
2.39 min | CC(=O)OC1CC(O)C23COC(O)C1(C)C2CC(O)C1(C)C3=C(O)C(=O)C2(C)C(c3ccoc3)CC3OC312 (stereo unspecified)
2.88 min | C/C=C/C(CC1C(=O)C=CC1(O)CCCCCCCC(=O)O)OC(C)=O (stereo unspecified)
2.81 min | O=C(c1ccc(O)cc1O)[C@H]1[C@H](C(=O)c2ccc(O)cc2O)[C@H](c2ccc(O)cc2)O[C@@H]1c1ccc(O)cc1
6.25 min | C/C(=C/CC[C@H](C)[C@@H]1CC[C@]2(C)C3=CCC4C(C)(C)C(=O)CC[C@]4(C)C3CC[C@@]12C)C(=O)O (stereo partly specified)
1.32 min | C/C=C1/CN2CCc3c([nH]c4ccccc34)[C@@](CO)(C(=O)OC)[C@H]1CC2
0.304 min | COc1cc(C=O)c([N+](=O)[O-])cc1OC [4,5-dimethoxy-2-nitrobenzaldehyde]
6.13 min | CC(C)=CCC1CC2(CC=C(C)C)C(O)=C(C(=O)C(C)C)C(=O)OC2=C(C(CC(=O)O)c2ccccc2)C1(C)C (stereo unspecified)
2.1 min | COc1c(-c2c(C)cc(OC)c3c(OC)cccc23)c(O)cc2c1C(C)NC(C)C2 (stereo unspecified)
3.25 min | CC(O)c1cncc2c(=O)n3c(cc12)-c1[nH]c2ccccc2c1CC3 (stereo unspecified)
4.37 min | C[C@H](C/C=C/C(C)(C)O)[C@H]1CC[C@@]2(C)C3C(=O)C=C4C(CCC(O)C4(C)C)[C@]3(C)CC[C@]12C (stereo partly specified)
2.6 min | CC/C=C/CC(O)C(O)/C=C/C(O)CCCCCCCC(=O)O (stereo unspecified) [(10E,15E)-9,12,13-trihydroxyoctadeca-10,15-dienoic acid]
2.62 min | COc1cccc2nc3occc3c(OC)c12 [4,5-dimethoxyfuro[2,3-b]quinoline]
1.29 min | COC(=O)C1=COC(OC2OC(CO)C(O)C(O)C2O)C2C(O)CN3CCc4c([nH]c5ccccc45)[C@@H]3CC12 (stereo partly specified)
1.37 min | COc1cc2c(cc1OC)Oc1c(O)ccc3c1C(C2)N(C)CC3 (stereo unspecified)
2.67 min | O=C1c2ccc(O)cc2OC(c2ccc(O)cc2)C1C1C(=O)c2ccc(O)cc2OC1c1ccc(O)cc1 (stereo unspecified)
4.79 min | C/C(=C\CC/C=C(\C)CC/C=C(\C)CCC(O)C(C)(O)CO)CC/C=C(\C)CCC(O)C(C)(C)O (stereo unspecified)
0.258 min | C[C@@H]1O[C@H](O[C@@H]2[C@@H](O)[C@H](OCCc3ccc(O)c(O)c3)O[C@H](CO)[C@H]2OC(=O)/C=C/c2ccc(O)c(O)c2)[C@H](O)[C@H](O)[C@H]1O
4.38 min | CC(C)=CC(O)C[C@@H](C)[C@H]1CC[C@@]2(C)C3C(=O)C=C4C(CCC(O)C4(C)C)[C@]3(C)CC[C@]12C (stereo partly specified)
2.86 min | CC(C)C1CCC2(C)C3CCC45CCCC4C2(CCC(=O)C2(C)COC4(C)CCC2O4)C1N5C3 (stereo unspecified)

LC retention time | SMILES
1.41 min | CC(CC[C@@H](C)[C@H]1CCC2C3C[C@H](OS(=O)(=O)O)[C@H]4C[C@H](OS(=O)(=O)O)C(OS(=O)(=O)O)C[C@]4(C)C3CC[C@@]21C)C(C)(C)C (stereo partly specified)
1.08 min | CN1CCc2cc3c(c4c2C1CC41C=CC(=O)C=C1)OCO3 (stereo unspecified)
5.93 min | CC(C)=CCC1CC23CC(CC=C(C)C)C(C)(C)C(CC=C(C)C)(C(=O)C(C(=O)c4ccc(O)c(O)c4)=C2OC1(C)C)C3=O (stereo unspecified)
5 min | CCC(C)C(=O)C1=C(O)C2(CC=C(C)C)CC(CCC(C)(C)O)C(C)(C)C(C(CC(=O)O)c3ccccc3)=C2OC1=O (stereo unspecified)
3.59 min | COc1c(C=O)c(O)cc2c1C(=O)c1ccccc1C2=O
3.4 min | CC1(C)CCC[C@]2(CO)C1CC[C@@]13C[C@@H](CCC12)[C@@](O)(COC(=O)/C=C/c1ccc(O)c(O)c1)C3 (stereo partly specified)
5.82 min | CCCCCCCCCCCCO[C@@H]1O[C@@H](C)[C@H](O[C@@H]2O[C@@H](C)[C@H](OC(C)=O)[C@@H](O[C@@H]3O[C@@H](C)[C@H](OC(C)=O)[C@@H](O[C@@H]4O[C@@H](C)[C@H](OC(C)=O)[C@@H](O)[C@H]4O)[C@H]3OC(C)=O)[C@H]2O)[C@@H](O)[C@H]1O
0.913 min | C/C=C1/C2C=C(C)CC1(N)c1ccc(=O)[nH]c1C2 (stereo unspecified)
2.23 min | Oc1ccc(C2Oc3cc(O)cc4c3C2c2cc(O)cc(O)c2C(c2ccc(O)cc2)C2c3cc(O)cc(O)c3C(c3ccc(O)cc3)C42)cc1 (stereo unspecified)
1.83 min | COc1ccc2c(c1OC)C(=O)OC2C1c2c(cc3c(c2OC)OCO3)CCN1C (stereo unspecified)
4.84 min | CCCCCCCCCCC/C=C\CC[C@@H]1CCC[C@@H](C)N1 [(2R,6S)-2-methyl-6-[(3Z)-pentadec-3-en-1-yl]piperidine]
3.48 min | C=C(C(=O)C(OC(C)=O)C(C)C1C(OC(C)=O)CC2(C)C3C4OC4C4C(C)C(=O)C=CC45CC35CCC12C)C(C)CO (stereo unspecified)
4.16 min | C=C1COC(=O)C12C[C@@]1(C)C([C@@H](OC(=O)/C(C)=C\C)CC[C@@H]1C)[C@H]2OC(C)=O (stereo partly specified)
4.41 min | C=C(C(=O)C(OC(C)=O)C(C)C1C(OC(C)=O)CC2(C)C3CCC4C(C)C(=O)C=CC45CC35CCC12C)C(C)CO (stereo unspecified)
4.16 min | C/C=C(/C)C(=O)OC1CCC2CC3(O)OC(=O)C(C)=C3CC2(C)C1C (stereo unspecified)
2.24 min | COc1cc(CCN(C)C)c2ccc3cc4c(c5c3c2c1OC5)OCO4
3.02 min | C=C1[C@@H](O)C[C@H]2[C@](C)(CO)CCC[C@]2(C)[C@H]1CC1C(C)=CCC2C(=O)C(OC)=CC(=O)C21c1cc(=O)c2c(O)cc(O)cc2o1 (stereo partly specified)
2.27 min | CC(=O)OC1CC(O)C23COCC1(C)C2CC(O)C1(C)C3C(=O)C(O)C2(C)C(c3ccoc3)CC3OC321 (stereo unspecified)
1.32 min | CC[C@H]1NC2C[C@@]3(C(=O)N(OC)c4cc(OC)ccc43)C3OCC2C1[C@@H]3O (stereo partly specified)
2.74 min | CC(=O)OC(C)(C)/C=C/C(=O)[C@](C)(O)[C@H]1[C@H](O)C[C@@]2(C)C3CC=C4C(C[C@H](OC5OC(CO)C(O)C(O)C5O)C(=O)C4(C)C)[C@]3(C)C(=O)C[C@]12C (stereo partly specified)
6.83 min | COC(=O)CC(C1=C2OC(=O)C(C(=O)CC(C)C)=C(O)C2(CC=C(C)C)CC(CC=C(C)C)C1(C)C)c1ccccc1 (stereo unspecified)
1.96 min | CC[C@@]12CC(C(=O)OC)=C3Nc4ccccc4[C@@]34CCN(C[C@H]3O[C@H]31)C24 (stereo partly specified)
3.68 min | COc1ccc(C(=O)[C@@H](c2coc3cc(O)ccc3c2=O)C(c2ccc(O)cc2)c2ccc(O)cc2)c(OC)c1
3.33 min | COC(=O)C1=CC(O)C23OC1CC2(C)CC[C@H](C(C)C)O3 (stereo partly specified)
6.29 min | CC(C)=CCC1CC2(CC=C(C)C)C(O)=C(C(=O)CC(C)C)C(=O)OC2=C(C(CC(=O)O)c2ccccc2)C1(C)C (stereo unspecified)
2.3 min | COc1cc(/C=C/C(=O)OCC(Cc2ccc(O)c(OC)c2)C(COC(C)=O)Cc2ccc(O)c(OC)c2)ccc1O (stereo unspecified)

SMILES | LC retention time
COc1ccc2c3c1OC1C(O)C=CC4C(C2)N(C)CCC341 (stereo unspecified) | 0.85 min
C=C(CO)C(=O)OC1CC(=C)C2CC(O)C(=C)C2C2OC(=O)C(=C)C12 (stereo unspecified) | 2.16 min
COc1ccc([C@@]23Oc4cc5c(c(OC)c4[C@]2(O)[C@H](O)[C@H](C(=O)N(C)C)[C@H]3c2ccccc2)OCO5)cc1 | 3.26 min
COc1ccc2c(c1)CC1c3c(cc4c(c3-2)OCO4)CCN1C (stereo unspecified) | 2.15 min
CCCCCCCCCCC[C@@H]1CCC[C@@H](C)N1 [(2R,6R)-2-methyl-6-undecylpiperidine] | 4.03 min
CCN1CC2(COC(=O)c3ccccc3NC(=O)CCC(=O)O)CCC(OC)C34C5CC6C(OC)CC(O)(C5C6OC)C(O)(C(OC)C23)C14 (stereo unspecified) | 2.22 min
CC(=O)OC(C)(C)/C=C/C(=O)[C@](C)(O)[C@H]1[C@H](O)C[C@@]2(C)[C@@H]3CC=C4C(C=C(O)C(=O)C4(C)C)[C@]3(C)C(=O)C[C@]12C (stereo partly specified) | 3.63 min
C[C@@H]1CC2(NCCS2)C(=O)C(O[C@@H]2CC3CCC4C(CC[C@]5(C)[C@@H](C6=CC(=O)OC6)CC[C@]45O)[C@@]3(C=O)C[C@H]2O)O1 (stereo partly specified) | 1.89 min
COc1ccc(Cc2nccc3cc(OC)c(OC)cc23)cc1OC [1-[(3,4-dimethoxyphenyl)methyl]-6,7-dimethoxyisoquinoline] | 1.79 min
CC[C@H]1C[C@@H]2CN3CCc4c([nH]c5ccccc45)[C@](C(=O)OC)(C2)[C@H]13 | 2.05 min
CCC1CC2CC3(C(=O)OC)c4[nH]c5ccccc5c4CCN(C2OC)C13 (stereo unspecified) | 1.77 min
CC1CC(C2CCC3N2CCCCC32CC(C)C(=O)O2)OC1=O (stereo unspecified) | 1.07 min
CC(=O)OC(C)(C)/C=C/C(=O)[C@](C)(O)[C@H]1[C@H](O)C[C@@]2(C)C3CC=C4C(CC(=O)C(O)C4(C)C)[C@]3(C)C(=O)C[C@]12C (stereo partly specified) | 2.88 min
CC[C@@H]1C(=O)N2CCc3c([nH]c4ccccc34)[C@H]2CC1/C(=C\OC)C(=O)OC (stereo partly specified) | 2.38 min
C=C(C)[C@@]12OC3(/C=C/C=C\CCCCC)O[C@@H]1C1[C@@H]4O[C@]4(CO)[C@@H](O)[C@]4(O)C(=O)C(C)=CC4[C@@]1(O3)[C@H](C)[C@H]2OC(=O)c1ccccc1 (stereo partly specified) | 5.88 min
COc1cc2c(cc1O)CC1NCCc3cc(O)c(OC)c-2c31 (stereo unspecified) | 1.11 min
COC(=O)[C@@]12C[C@@H]3C[C@H]([C@H](C)O)C1N(CCc1c2[nH]c2ccccc12)C3 | 1.91 min
COc1cc2c(cc1OC)-c1c(OC)c(OC)cc3c1C(C2)N(C)CC3 (stereo unspecified) | 1.87 min
